“And” between values parts separate entries of the source, which are not always exact repeats. Equal values may be shown once. “Also recorded” adds a separate entry of the source.
Assays:
[1] = test system: leukocytes (PMN) in aqueous humor; test: Leukocytes (PMN) measurement in aqueous humor; type: in vivo, Rabbit; conditions: second paracentesis; for PMN (number/μl) in aqueous humor, raw data: individual eye sample; for PMN in aqueous humor, Mean (number/μl): group mean
Procedure: (§1) Each rabbit was placed in a restraint device and tagged with the alphanumeric code. The formulations were instilled (50 μl) into the conjunctival sac of both eyes 180, 120, 90 and 30 min before the first paracentesis; then 15, 30, 90 min after the first paracentesis. To perform the first paracentesis the animals were anaesthetized by intraveneous injection of 5 mg/kg Zoletil® (Virbac; 2.5 mg/kg tiletamine HCl and 2.5 mg/kg zolazepam HCl) and one drop of local anesthetic (Novesina®, Novartis) was administered to the eye. Anterior chamber paracentesis was performed with a 26 G needle attached to a tuberculin syringe; the needle was introduced into the anterior chamber through the cornea, taking care not to damage the tissues. Two hours after the first paracentesis, the animals were sacrificed with 0.4 ml Tanax® (Intervet International B. V.) and the second paracentesis was performed. About 100 μl of aqueous humor were removed at the second paracentesis. Aqueous humor was immediately split in four aliquots and stored at −80° C. until analysis. Then both eyes were enucleated and the iris-ciliary body was carefully excised, placed in polypropylene tubes, and stored at −80° C. until analysis.
For the determination of the number of leukocytes we used a haemocytometer (Improved Neubauer Chamber; Brigth-line, Hausser Scientific) and a Polyvar 2 microscope (Reichert-Jung).
(§2) Pupillary diameter, PGE2, protein, PMN, and MPO were expressed as mean±SEM. Statistical analysis was performed using one way ANOVA followed by a Newman-Keuls post hoc test. Clinical score was expressed as % of eyes and the statistical analysis was performed using Kruskal-Wallis followed by a Dunn post hoc test. P<0.05 was considered statistically significant in both cases. Prism 4 software (GraphPad Software, Inc.) was used for the analysis and graphs.

[2] = test system: PGE2 in the aqueous humor; test: Prostaglandin E2 (PGE2) measurement in aqueous humor; type: in vivo, Rabbit; conditions: individual eye sample, second paracentesis
[3] = test system: rabbit paracentesis model; test: Rabbit paracentesis model, overall anti-inflammatory activity; type: in vivo; conditions: 0.1%, 0.5% and 1% topical formulations; preliminary conclusions; listed as BOL-303242-X
Source text: Inflammatory processes are multidimensional in origin, and are characterized by complex cellular and molecular events involving numerous components all of which have not been identified. Prostaglandins are among these mediators and play an important role in certain forms of ocular inflammation. Paracentesis of the anterior chamber in the rabbit eye induces inflammatory reaction due to the disruption of the blood-aqueous barrier (“BAB”), which is mediated, at least in part, by prostaglandin E2 [References 1-3 below]. Intraocular or topical administration of PGE2 disrupts the BAB. [Reference 4, below] The treatment schedule adopted in this study was similar to the clinical NSAIDs (Ocufen) treatment schedule used by surgeons for patients before cataract surgery.
Each rabbit was placed in a restraint device and tagged with the alphanumeric code. The formulations were instilled (50 μl) into the conjunctival sac of both eyes 180, 120, 90 and 30 min before the first paracentesis; then 15, 30, 90 min after the first paracentesis. To perform the first paracentesis the animals were anaesthetized by intraveneous injection of 5 mg/kg Zoletil® (Virbac; 2.5 mg/kg tiletamine HCl and 2.5 mg/kg zolazepam HCl) and one drop of local anesthetic (Novesina®, Novartis) was administered to the eye. […]

[4] = test system: rabbit eye (anterior chamber paracentesis); test: Pupillary diameter measurement, rabbit paracentesis model; type: in vivo; conditions: group mean, n=8 eyes
Procedure: as §1
The pupillary diameter of both eyes was measured with a Castroviejo caliper 180 min and 5 min before the first paracentesis and 5 min before the second paracentesis.
as §2

Compound | PMN (number/μl) in aqueous humor, raw data ([1]; 0.1% topical formulation) | PMN (number/μl) in aqueous humor, raw data ([1]; 0.5% topical formulation) | PMN (number/μl) in aqueous humor, raw data ([1]; 1% topical formulation) | PGE2 (ng/ml) in aqueous humor, raw data ([2]; 0.1% topical formulation) | PGE2 (ng/ml) in aqueous humor, raw data ([2]; 0.5% topical formulation) | PGE2 (ng/ml) in aqueous humor, raw data ([2]; 1% topical formulation) | Anti-inflammatory activity in rabbit paracentesis model (conclusion) [3] | Mean (mm) Δ(T3-T1) pupillary diameter ([4]; 0.1% topical formulation) | Mean (mm) Δ(T3-T1) pupillary diameter ([4]; 0.5% topical formulation) | Mean (mm) Δ(T3-T1) pupillary diameter ([4]; 1% topical formulation) | PMN in aqueous humor, Mean (number/μl) ([1]; 0.1% topical formulation) | PMN in aqueous humor, Mean (number/μl) ([1]; 0.03% topical formulation) | PMN (number/μl) in aqueous humor, raw data ([1]; 0.03% topical formulation) | PGE2 (ng/ml) in aqueous humor, raw data ([2]; 0.03% topical formulation) | Mean (mm) Δ(T3-T1) pupillary diameter ([4]; 0.03% topical formulation)
Cc1ccc2c(NCC(O)(CC(C)(C)c3cc(F)cc4c3OCC4)C(F)(F)F)cccc2n1 (stereo not drawn) [BOL] | 20 number/μl (4×) and 40 number/μl and 50 number/μl | 40 number/μl (2×) and 20 number/μl (3×) and 10 number/μl (3×) | 30 number/μl (3×) and 20 number/μl (3×) and 40 number/μl (2×) | 0.70 ng/mL | 0.53 ng/mL and 0.75 ng/mL and 0.80 ng/mL | 0.50 ng/mL | active in this model; also recorded: as effective an anti-inflammatory drug as some of the commonly accepted prior-art steroids or NSAID | −1.1 mm | −1.0 mm | −0.9 mm |  |  |  |  | 
C[C@@H]1C[C@H]2[C@@H]3CCC4=CC(=O)C=C[C@]4(C)[C@@]3(F)[C@@H](O)C[C@]2(C)[C@@]1(O)C(=O)CO [Dex, dexamethasone] | 20 number/μl (3×) and 50 number/μl and 40 number/μl and 30 number/μl |  |  | 2.10 ng/mL and 1.30 ng/mL |  |  |  | −0.8 mm |  |  | 30.000 number/μl |  |  |  | 
CC(C(=O)O)c1ccc(-c2ccccc2)c(F)c1 (stereo not drawn) [F, flurbiprofen] |  |  |  |  |  |  |  |  |  |  |  | 30.000 number/μl | 50 number/μl and 40 number/μl (2×) and 20 number/μl (2×) and 10 number/μl and 30 number/μl | 0.75 ng/mL and 0.85 ng/mL and 0.93 ng/mL and 0.61 ng/mL | −0.9 mm
CCOC(=O)O[C@]1(C(=O)OCCl)CC[C@H]2[C@@H]3CCC4=CC(=O)C=C[C@]4(C)[C@H]3[C@@H](O)C[C@@]21C [LE, loteprednol etabonate] |  | 40 number/μl (2×) and 20 number/μl (3×) and 30 number/μl |  |  | ^2N/D^ and 0.23 ng/ml and 0.68 ng/ml and 1.10 ng/ml |  |  |  | −0.9 mm |  |  |  |  |  | 

From patent US20080009437A1, “Pharmaceutical Compositions and Method for Treating Dry Eye” (priority 2006, published 2008)
